Source: US20230062100A1, “SUBSTITUTED AMINOQUINOLONES AS DGKALPHA INHIBITORS FOR IMMUNE ACTIVATION” (Bayer Aktiengesellschaft, priority 2019, published 2023)

Biological target: DGKα (Homo sapiens, UniProt P23743)
Assay: Human DGKα kinase activity inhibition assay (ADP-Glo)
Format: biochemical
Conditions: in vitro human DGKα kinase activity inhibition assay
Outline: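 C-terminally FLAG-tagged full-length human DGKα from baculovirus/insect cells (typically ~0.1 nM) phosphorylated 1,2-dioleoyl-sn-glycerol in octyl-β-D-glucopyranoside micelles in MOPS pH 7.4. ADP formed was quantified by ADP-Glo luminescence after 1 h ATP depletion at 22 °C.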

DGKα, sequence (P23743 with tags, fused parts or gaps): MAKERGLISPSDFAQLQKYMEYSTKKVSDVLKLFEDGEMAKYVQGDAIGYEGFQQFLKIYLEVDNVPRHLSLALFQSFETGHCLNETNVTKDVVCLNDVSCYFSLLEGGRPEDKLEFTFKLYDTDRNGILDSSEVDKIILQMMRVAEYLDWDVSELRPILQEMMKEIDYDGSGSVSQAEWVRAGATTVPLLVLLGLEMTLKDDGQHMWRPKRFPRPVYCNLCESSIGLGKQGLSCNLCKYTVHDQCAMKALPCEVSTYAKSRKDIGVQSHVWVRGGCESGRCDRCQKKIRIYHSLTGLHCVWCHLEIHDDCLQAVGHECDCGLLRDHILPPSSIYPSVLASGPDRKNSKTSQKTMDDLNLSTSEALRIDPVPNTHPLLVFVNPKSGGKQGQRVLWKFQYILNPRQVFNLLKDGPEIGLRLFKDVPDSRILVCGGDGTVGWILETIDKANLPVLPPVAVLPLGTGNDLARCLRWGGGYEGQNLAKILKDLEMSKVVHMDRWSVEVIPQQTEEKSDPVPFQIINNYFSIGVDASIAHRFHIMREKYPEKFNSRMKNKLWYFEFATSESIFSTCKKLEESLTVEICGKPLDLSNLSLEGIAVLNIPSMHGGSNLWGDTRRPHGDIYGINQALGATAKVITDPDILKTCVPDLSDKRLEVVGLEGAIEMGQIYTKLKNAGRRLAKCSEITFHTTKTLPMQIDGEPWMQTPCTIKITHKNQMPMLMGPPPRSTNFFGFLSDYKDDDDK

Row | IC50 | SMILES
1 | 8.6 nM | Cn1c(=O)c(C#N)c(N2CCC(Oc3cccc(F)c3)CC2)c2ccccc21 [Example 7, 4-[4-(3-fluorophenoxy)piperidin-1-yl]-1-methyl-2-oxo-1,2-dihydroquinoline-3-carbonitrile]
2 | 43 nM | COc1cccc(COC2CCN(c3c(C(N)=O)c(=O)n(C)c4ccccc34)CC2)c1 [Example 125, 4-{4-[(3-methoxyphenyl)methoxy]piperidin-1-yl}-1-methyl-2-oxo-1,2-dihydroquinoline-3-carboxamide]
3 | 6.2 nM | Cc1cccc(OC2CCN(c3c(C#N)c(=O)n(C)c4ccccc34)CC2)c1 [Example 3, 1-methyl-4-[4-(3-methylphenoxy)piperidin-1-yl]-2-oxo-1,2-dihydroquinoline-3-carbonitrile]
4 | 12 nM | Cc1cccc(OC2CCN(c3c(C(N)=O)c(=O)n(C)c4ccc(C)cc34)CC2)c1 [Example 158, 1,6-dimethyl-4-[4-(3-methylphenoxy)piperidin-1-yl]-2-oxo-1,2-dihydroquinoline-3-carboxamide]
5 | 3.7 nM | COCCc1ccc2c(N3CCC(Oc4ccc(Cl)cc4)CC3)c(C#N)c(=O)n(C)c2c1 [Example 75, 4-[4-(4-chlorophenoxy)piperidin-1-yl]-7-(2-methoxyethyl)-1-methyl-2-oxo-1,2-dihydroquinoline-3-carbonitrile]
6 | 16 nM | Cn1c(=O)c(C#N)c(N2CCC(Oc3ccc(OC(F)(F)F)cc3)CC2)c2ccc(Cl)cc21 [Example 64, 7-chloro-1-methyl-2-oxo-4-{4-[4-(trifluoromethoxy)phenoxy]piperidin-1-yl}-1,2-dihydroquinoline-3-carbonitrile]
7 | 7.7 nM | Cn1c(=O)c(C#N)c(N2CCC(Oc3ccccc3)CC2)c2ccccc21 [Example 5, 1-methyl-2-oxo-4-(4-phenoxypiperidin-1-yl)-1,2-dihydroquinoline-3-carbonitrile]
8 | 4.4 nM | Cn1c(=O)c(C#N)c(N2CCC(Sc3ccccc3)CC2)c2ccc(Br)cc21 [Example 55, 7-bromo-1-methyl-2-oxo-4-[4-(phenylsulfanyl)piperidin-1-yl]-1,2-dihydroquinoline-3-carbonitrile]
9 | 14 nM | Cn1c(=O)c(C#N)c(N2CCC(Sc3ccccc3)CC2)c2ccc(N3CCCC3=O)cc21 [Example 83, 1-methyl-2-oxo-7-(2-oxopyrrolidin-1-yl)-4-[4-(phenylsulfanyl)piperidin-1-yl]-1,2-dihydroquinoline-3-carbonitrile]
10 | 0.94 nM | Cn1c(=O)c(C#N)c(N2CCC(Oc3ccc(OC(F)(F)F)cc3)CC2)c2cc(O)ccc21 [Example 167, 6-hydroxy-1-methyl-2-oxo-4-{4-[4-(trifluoromethoxy)phenoxy]piperidin-1-yl}-1,2-dihydroquinoline-3-carbonitrile]
11 | 13 nM | Cn1c(=O)c(C#N)c(N2CCC(Oc3ccccc3F)CC2)c2ccccc21 [Example 33, 4-[4-(2-fluorophenoxy)piperidin-1-yl]-1-methyl-2-oxo-1,2-dihydroquinoline-3-carbonitrile]
12 | 9.1 nM | Cn1c(=O)c(C#N)c(N2CCC(Oc3cccc(Cl)c3)CC2)c2ccccc21 [Example 9, 4-[4-(3-chlorophenoxy)piperidin-1-yl]-1-methyl-2-oxo-1,2-dihydroquinoline-3-carbonitrile]
13 | 17 nM | Cn1c(=O)c(C#N)c(N2CCC(Oc3ccc(F)cc3)CC2)c2cc(C#N)ccc21 [Example 146, 4-[4-(4-fluorophenoxy)piperidin-1-yl]-1-methyl-2-oxo-1,2-dihydroquinoline-3,6-dicarbonitrile]
14 | 12 nM | COc1cccc(OC2CCN(c3c(C(N)=O)c(=O)n(C)c4ccc(C)cc34)CC2)c1 [Example 159, 4-[4-(3-methoxyphenoxy)piperidin-1-yl]-1,6-dimethyl-2-oxo-1,2-dihydroquinoline-3-carboxamide]
15 | 21 nM | COc1cc(C)ccc1OC1CCN(c2c(C(N)=O)c(=O)n(C)c3ccc(C)cc23)CC1 [Example 161, 4-[4-(2-methoxy-4-methylphenoxy)piperidin-1-yl]-1,6-dimethyl-2-oxo-1,2-dihydroquinoline-3-carboxamide]
16 | 37 nM | Cn1c(=O)c(C#N)c(N2CCC(Oc3ccc(OC(F)(F)F)cc3)CC2)c2cccc(N=S(C)(C)=O)c21 [Example 134, 8-{[dimethyl(oxo)-λ^6-sulfanylidene]amino}-1-methyl-2-oxo-4-{4-[4-(trifluoromethoxy)phenoxy]piperidin-1-yl}-1,2-dihydroquinoline-3-carbonitrile]
17 | 10 nM | COc1cc(C)ccc1OC1CCN(c2c(C#N)c(=O)n(C)c3ccc(C)cc23)CC1 [Example 153, 4-[4-(2-methoxy-4-methylphenoxy)piperidin-1-yl]-1,6-dimethyl-2-oxo-1,2-dihydroquinoline-3-carbonitrile]
18 | 13 nM | Cn1c(=O)c(C#N)c(N2CCC(Oc3ccc(Br)cc3)CC2)c2ccccc21 [Example 8, 4-[4-(4-bromophenoxy)piperidin-1-yl]-1-methyl-2-oxo-1,2-dihydroquinoline-3-carbonitrile]

Row | IC50 | SMILES
19 | 416 nM | Cn1c(=O)c(C#N)c(N2CCC(Oc3ccc(OC(F)(F)F)cc3)CC2)c2ccc(P(C)(C)=O)cc21 [Example 79, 7-(dimethylphosphoryl)-1-methyl-2-oxo-4-{4-[4-(trifluoromethoxy)phenoxy]piperidin-1-yl}-1,2-dihydroquinoline-3-carbonitrile]
20 | 32 nM | Cn1c(=O)c(C#N)c(N2CCC(Sc3ccccc3)CC2)c2cc(C3CC3)ccc21 [Example 147, 6-cyclopropyl-1-methyl-2-oxo-4-[4-(phenylsulfanyl)piperidin-1-yl]-1,2-dihydroquinoline-3-carbonitrile]
21 | 14 nM | Cc1ccccc1OC1CCN(c2c(C#N)c(=O)n(C)c3ccccc23)CC1 [Example 14, 1-methyl-4-[4-(2-methylphenoxy)piperidin-1-yl]-2-oxo-1,2-dihydroquinoline-3-carbonitrile]
22 | 37 nM | Cn1c(=O)c(C(N)=O)c(N2CCC(Oc3ccc(OC(F)(F)F)cc3)CC2)c2cccc(Cl)c21 [Example 164, 8-chloro-1-methyl-2-oxo-4-{4-[4-(trifluoromethoxy)phenoxy]piperidin-1-yl}-1,2-dihydroquinoline-3-carboxamide]
23 | 17 nM | Cn1c(=O)c(C#N)c(N2CCC(Oc3cccc(OC(F)(F)F)c3)CC2)c2ccc(C3COC3)cc21 [Example 77, 1-methyl-7-(oxetan-3-yl)-2-oxo-4-{4-[3-(trifluoromethoxy)phenoxy]piperidin-1-yl}-1,2-dihydroquinoline-3-carbonitrile]
24 | 10 nM | Cn1c(=O)c(C#N)c(N2CCC(Oc3ccc(Cl)cc3)CC2)c2ccccc21 [Example 10, 4-[4-(4-chlorophenoxy)piperidin-1-yl]-1-methyl-2-oxo-1,2-dihydroquinoline-3-carbonitrile]
25 | 10 nM | Cn1c(=O)c(C#N)c(N2CCC(Oc3ccc(C4CC4)cc3)CC2)c2ccccc21 [Example 37, 4-[4-(4-cyclopropylphenoxy)piperidin-1-yl]-1-methyl-2-oxo-1,2-dihydroquinoline-3-carbonitrile]
26 | 415 nM | CN(C)C(=O)c1ccc(OC2CCN(c3c(C#N)c(=O)n(C)c4ccccc34)CC2)cc1 [Example 26, 4-{[1-(3-cyano-1-methyl-2-oxo-1,2-dihydroquinolin-4-yl)piperidin-4-yl]oxy}-N,N-dimethylbenzamide]
27 | 5.8 nM | Cn1c(=O)c(C#N)c(N2CCC(Oc3ccccc3)CC2)c2ccc(Br)cc21 [Example 54, 7-bromo-1-methyl-2-oxo-4-(4-phenoxypiperidin-1-yl)-1,2-dihydroquinoline-3-carbonitrile]
28 | 18 nM | Cn1c(=O)c(C#N)c(N2CCC(Oc3cccc(OC(F)(F)F)c3)CC2)c2ccccc21 [Example 38, 1-methyl-2-oxo-4-{4-[3-(trifluoromethoxy)phenoxy]piperidin-1-yl}-1,2-dihydroquinoline-3-carbonitrile]
29 | 202 nM | Cn1c(=O)c(C#N)c(N2CCC(Oc3ccc(OC(F)(F)F)cc3)CC2)c2cccc(Br)c21 [Example 130, 8-bromo-1-methyl-2-oxo-4-{4-[4-(trifluoromethoxy)phenoxy]piperidin-1-yl}-1,2-dihydroquinoline-3-carbonitrile]
30 | 4.7 nM | Cc1ccc2c(c1)c(N1CCC(Oc3ccc(OC(F)(F)F)cc3)CC1)c(C#N)c(=O)n2C [Example 143, 1,6-dimethyl-2-oxo-4-{4-[4-(trifluoromethoxy)phenoxy]piperidin-1-yl}-1,2-dihydroquinoline-3-carbonitrile]
31 | 3.1 nM | Cc1ccc2c(c1)c(N1CCC(Oc3ccc(OC(F)(F)F)cc3)CC1)c(C(N)=O)c(=O)n2C [Example 160, 1,6-dimethyl-2-oxo-4-{4-[4-(trifluoromethoxy)phenoxy]piperidin-1-yl}-1,2-dihydroquinoline-3-carboxamide]
32 | 1.4 nM | Cn1c(=O)c(C#N)c(N2CCC(Sc3ccccc3)CC2)c2cc(Br)ccc21 [Example 140, 6-bromo-1-methyl-2-oxo-4-[4-(phenylsulfanyl)piperidin-1-yl]-1,2-dihydroquinoline-3-carbonitrile]
33 | 7 nM | COc1ccc2c(c1)c(N1CCC(Oc3ccc(OC(F)(F)F)cc3)CC1)c(C#N)c(=O)n2C [Example 156, 6-methoxy-1-methyl-2-oxo-4-{4-[4-(trifluoromethoxy)phenoxy]piperidin-1-yl}-1,2-dihydroquinoline-3-carbonitrile]
34 | 16 nM | Cn1c(=O)c(C#N)c(N2CCC(Oc3ccc(Cl)cc3)CC2)c2ccc(C3COC3)cc21 [Example 72, 4-[4-(4-chlorophenoxy)piperidin-1-yl]-1-methyl-7-(oxetan-3-yl)-2-oxo-1,2-dihydroquinoline-3-carbonitrile]
35 | 14 nM | Cn1c(=O)c(C#N)c(N2CCC(Oc3cccc(C(F)(F)F)c3)CC2)c2ccccc21 [Example 15, 1-methyl-2-oxo-4-{4-[3-(trifluoromethyl)phenoxy]piperidin-1-yl}-1,2-dihydroquinoline-3-carbonitrile]

Row | SMILES | IC50
36 | CCCCOc1ccc2c(N3CCC(Sc4ccccc4)CC3)c(C#N)c(=O)n(C)c2c1 [Example 69, 7-butoxy-1-methyl-2-oxo-4-[4-(phenylsulfanyl)piperidin-1-yl]-1,2-dihydroquinoline-3-carbonitrile] | 507 nM
